Experimental data reported in ChEMBL document CHEMBL4390692, “Enzymatic activation of indolequinone-substituted 5-fluorodeoxyuridine prodrugs in hypoxic cells” (Bioorg Med Chem Lett, 2019).
Each block holds one molecule with its values, some of them ahead of it. Calls of active or inactive are those of the source. The rule behind the calls is not given here.

Experiments:
[1] = system: A549; test: Cytotoxicity against human A549 cells at 1 uM treated 24 hrs post aerobic condition and measured after 72 hrs under aerobic condition by WST-8 assay relative to control; assay type: cell-based; details: a549, 72 h
[2] = biological target: T1, NADPH--cytochrome P450 reductase (Homo sapiens, UniProt P16435); test: Prodrug activation in pH 7.4 PBS buffer assessed as 3.3 ug/mL NADPH-cytochrome P450 reductase (unknown origin) mediated FdUrd formation at 0.62 mM in the presence of beta-NADPH measured after 2 hrs under hypoxic condition by reverse phase HPLC relative to control; assay type: ADME; details: pH 7.4, 2 h, 620 µM
T1 sequence (P16435 whole entry): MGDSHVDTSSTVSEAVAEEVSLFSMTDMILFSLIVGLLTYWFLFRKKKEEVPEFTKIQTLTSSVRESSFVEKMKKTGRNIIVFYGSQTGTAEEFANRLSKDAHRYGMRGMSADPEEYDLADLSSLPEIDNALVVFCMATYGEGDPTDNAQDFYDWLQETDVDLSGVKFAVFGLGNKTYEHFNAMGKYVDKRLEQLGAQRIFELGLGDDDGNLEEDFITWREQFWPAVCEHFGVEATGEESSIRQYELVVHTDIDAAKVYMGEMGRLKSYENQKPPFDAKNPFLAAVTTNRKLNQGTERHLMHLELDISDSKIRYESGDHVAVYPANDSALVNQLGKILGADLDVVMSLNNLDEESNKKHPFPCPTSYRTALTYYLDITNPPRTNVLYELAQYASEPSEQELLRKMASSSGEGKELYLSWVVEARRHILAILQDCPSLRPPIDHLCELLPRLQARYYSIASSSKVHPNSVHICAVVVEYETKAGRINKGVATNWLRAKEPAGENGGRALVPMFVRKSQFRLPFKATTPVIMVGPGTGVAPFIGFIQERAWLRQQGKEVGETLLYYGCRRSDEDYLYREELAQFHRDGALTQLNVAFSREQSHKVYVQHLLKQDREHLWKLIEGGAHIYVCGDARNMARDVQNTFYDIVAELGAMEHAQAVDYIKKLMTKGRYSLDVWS

[3] = system: A549; test: Cytotoxicity against human A549 cells at 1 to 50 uM treated 24 hrs post hypoxic condition measured after 72 hrs under hypoxic condition by WST-8 assay relative to control; assay type: functional, cell-based
[4] = biological target: T1, NADPH--cytochrome P450 reductase; test: Prodrug activation in pH 7.4 PBS buffer assessed as 3.3 ug/mL NADPH-cytochrome P450 reductase (unknown origin) mediated FdUrd formation at 0.62 mM in the presence of beta-NADPH measured after 2 hrs under aerobic condition by reverse phase HPLC; assay type: ADME; details: pH 7.4, 2 h, 620 µM
[5] = substrate: COC1=CC(=O)c2c(c(Cn3c(=O)c(F)cn([C@H]4C[C@H](O)[C@@H](CO)O4)c3=O)c(C)n2C)C1=O; test: Prodrug conversion in pH 7.4 PBS buffer assessed as NADPH-cytochrome P450 reductase (unknown origin) mediated FdUrd release by measuring Km at 0.62 mM in the presence of beta-NADPH measured after 2 hrs under hypoxic condition by Lineweaver-Burk plot analysis; assay type: ADME, Homo sapiens
[6] = substrate: COC1=CC(=O)c2c(c(Cn3c(=O)c(F)cn([C@H]4C[C@H](O)[C@@H](CO)O4)c3=O)c(C)n2C)C1=O; test: Prodrug conversion in pH 7.4 PBS buffer assessed as NADPH-cytochrome P450 reductase (unknown origin) mediated FdUrd release by measuring Km at 0.62 mM in the presence of beta-NADPH measured after 2 hrs under aerobic condition by Lineweaver-Burk plot analysis; assay type: ADME, Homo sapiens

Drug metabolism [2]: Metabolite_Notdetected
Molecule: CNC1=CC(=O)c2c(c(Cn3c(=O)c(F)cn([C@H]4C[C@H](O)[C@@H](CO)O4)c3=O)c(C)n2C)C1=O

Drug metabolism [4]: Metabolite_Notdetected
Molecule: COC1=CC(=O)c2c(c(Cn3c(=O)c(F)cn([C@H]4C[C@H](O)[C@@H](CO)O4)c3=O)c(C)n2C)C1=O
Activity [1]: Non-Toxic | Activity [3]: Active

The next lines start with the molecule.

Molecule: O=c1[nH]c(=O)n([C@H]2C[C@H](O)[C@@H](CO)O2)cc1F [FLOXURIDINE]
Activity [1]: Toxic

B1: NADPH--cytochrome P450 reductase (Homo sapiens) (protein)
chain: T1 sequence (P16435 whole entry)
Km [5]: 1000 µM | Vmax [5]: 3.4e-06 µmol/min | Km [6]: 1500 µM | Vmax [6]: 2e-07 µmol/min
